Literature values as cited in US20070053983A1 (priority 2005, published 2007).

Test system: β-adrenergic receptors
Details: man; reduced heart rate, cardiac output and exercise systolic pressure; inhibition of isoproterenol-induced and reflex orthostatic tachycardia

In the case of COCCc1ccc(OCC(O)CNC(C)C)cc1 (stereo not shown) [Metoprolol], the β-blocking activity is listed as “confirmed the β-blocking activity”.
